The results in this text go back to US20150105252A1, “SUBSTITUTED PYRAZOLES AS HERBICIDES” (E I DU PONT DE NEMOURS AND COMPANY, priority 2013, published 2015).

Test [1] has as its system lambsquarters. As to the kind of experiment: Test F preemergence. The test is classed as in vivo, Chenopodium album. The text has this:
(§1) Seeds of plant species selected from corn (Zea mays), soybean (Glycine max), velvetleaf (Abutilon theophrasti), lambsquarters (Chenopodium album), wild poinsettia (Euphorbia heterophylla), pigweed, palmer (palmer pigweed, Amaranthus palmeri), common waterhemp (Amaranthus rudis), surinam grass (Brachiaria decumbens), large crabgrass (Digitaria sanguinalis), crabgrass, Brazil (Brazilian crabgrass, Digitaria horizontalis), fall panicum (Panicum dichotomiflorum), giant foxtail (Setaria faberii), green foxtail (Setaria viridis), goosegrass (Eleusine indica), johnsongrass (Sorghum halepense), common ragweed (Ambrosia elation), barnyardgrass (Echinochloa crus-galli), southern sandbur (Cenchrus echinatus), arrowleaf sida (Sida rhombifolia), Italian ryegrass (Lolium multiflorum), dayflower, VA (Virginia (VA) dayflower, Commelina virginica), field bindweed (Convolvulus arvensis), cocklebur (common cocklebur, Xanthium strumarium), morningglory (Ipomoea coccinea), nightshade (eastern black nightshade, Solanum ptycanthum), kochia (Kochia scoparia), yellow nutsedge (Cyperus esculentus), and hairy beggarticks (Bidens pilosa), were planted into a silt loam soil and treated preemergence with test chemicals formulated in a non-phytotoxic solvent mixture which included a surfactant.
(§2) At the same time, plants from these crop and weed species and also horseweed (Canada horseweed, Conyza canadensis), smartweed (ladysthumb smartweed, Polygonum persicaria), waterhemp_RES1, (ALS & Triazine resistant common waterhemp, Amaranthus rudis), and waterhemp_RES2, (ALS & HPPD resistant common waterhemp, Amaranthus rudis) were treated with postemergence applications of test chemicals formulated in the same manner. Plants ranged in height from 2 to 18 cm for postemergence treatments (1- to 4-leaf stage). Treated plants and controls were maintained in a greenhouse for 14 to 21 days, after which time all species were compared to controls and visually evaluated. Plant response ratings, summarized in Table F, are based on a scale of 0 to 100 where 0 is no effect and 100 is complete control. A dash (-) response means no test result.

The test system of test [2] is pigweed, palmer. As to the kind of experiment: Test F postemergence. The class given is in vivo, Amaranthus palmeri. The note with it: scale 0 to 100.
Description: as §1, §2

Test [3] relates to common ragweed. As to the kind of experiment: Test F preemergence. The test is classed as in vivo, Ambrosia elation. In outline:
(§3)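 Pre- and postemergence applications used the same formulation, a non-phytotoxic solvent mixture including surfactant. Soil-applied treatment followed sowing into silt loam, whereas foliar treatment hit plants at the 1- to 4-leaf stage. Scores (0 = no effect, 100 = complete control) were assigned visually after 14–21 days.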

Test [4] concerns johnsongrass. As to the kind of experiment: Test E preemergence. The test is classed as in vivo, Sorghum halepense. Conditions: 21 days, scale 0 to 100. An excerpt:
Seeds of plant species selected from bermudagrass (Cynodon dactylon), Surinam grass (Brachiaria decumbens), crabgrass, large (large crabgrass, Digitaria sanguinalis), crabgrass, naked (naked crabgrass, Digitaria nuda), foxtail, green (green foxtail, Setaria viridis), johnsongrass (Sorghum halepense), kochia (Kochia scoparia), morningglory (pitted morningglory, Ipomoea lacunosa), nutsedge, purple (purple nutsedge, Cyperus rotundus), ragweed (common ragweed, Ambrosia elation), mustard, black (black mustard, Brassica nigra), guineagrass (Panicum maximum), dallisgrass (Paspalum dilatatum), barnyardgrass (Echinochloa crus-galli), sandbur (southern sandbur, Cenchrus echinatus), sowthistle (common sowthistle, Sonchus oleraceous), ryegrass, Italian (Italian ryegrass, Lolium multiflorum), signalgrass (broadleaf signalgrass, Brachiaria platyphylla), dayflower, VA (Virginia (VA) dayflower, Commelina virginica), bluegrass (annual bluegrass, Poa annua), quackgrass (Elytrigia repens), mallow (common mallow, Malva sylvestris), buckwheat, wild (wild buckwheat, Polygonum convolvulus), leafy spurge (Euphorbia esula), common chickweed (Stellaria media), wild poinsettia (Euphorbia heterophylla), pigweed, palmer (palmer pigweed, Amaranthus palmeri), and pigweed (redroot pigweed, Amaranthus retroflexus) were planted into a blend of loam soil and sand and treated preemergence with test chemicals formulated in a non-phytotoxic solvent mixture which included a surfactant.
Treated plants and controls were maintained in a greenhouse for 21 days, after which time all species were compared to controls and visually evaluated. Plant response ratings, summarized in Table E, are based on a scale of 0 to 100 where 0 is no effect and 100 is complete control. A dash (-) response means no test result.

The test system of test [5] is giant foxtail. As to the kind of experiment: Test F preemergence. The test is classed as in vivo, Setaria faberii. In outline:
as §3

The subject of test [6] is fall panicum. The experiment in a line: Test F preemergence. The class given is in vivo, Panicum dichotomiflorum. In outline:
as §3

Test [7] relates to foxtail, green. As to the kind of experiment: Test D preemergence. The test is classed as in vivo, Setaria viridis. The note with it: scale 0 to 100. The text has this: (§4) Seeds of plant species selected from bluegrass (annual bluegrass, Poa annua), blackgrass (Alopecurus myosuroides), canarygrass (littleseed canarygrass, Phalaris minor), chickweed (common chickweed, Stellaria media), galium (catchweed bedstraw, Galium aparine), bromegrass, downy (downy bromegrass, Bromus tectorum), field poppy (Papaver rhoeas), field violet (Viola arvensis), foxtail, green (green foxtail, Setaria viridis), deadnettle (henbit deadnettle, Lamium amplexicaule), ryegrass, Italian (Italian ryegrass, Lolium multiflorum), kochia (Kochia scoparia), lambsquarters (Chenopodium album), oilseed rape (Brassica napus), pigweed (redroot pigweed, Amaranthus retroflexus), chamomile (scentless chamomile, Matricaria inodora), speedwell (bird's-eye speedwell, Veronica persica), barley, spring (spring barley, Hordeum vulgare), wheat, spring (spring wheat, Triticum aestivum), buckwheat, wild (wild buckwheat, Polygonum convolvulus), mustard, wild (wild mustard, Sinapis arvensis), oat, wild (wild oat, Avena fatua), radish, wild (wild radish, Raphanus raphanistrum), windgrass (Apera spica-venti), Russian thistle (Salsola kali), barley, winter (winter barley, Hordeum vulgare), and wheat, winter (winter wheat, Triticum aestivum) were planted into a silt loam soil and treated preemergence with test chemicals formulated in a non-phytotoxic solvent mixture which included a surfactant.
(§5) At the same time, these species were planted in pots containing Redi-Earth® planting medium (Scotts Company, 14111 Scottslawn Road, Marysville, Ohio 43041) comprising spaghnum peat moss, vermiculite, wetting agent and starter nutrients and treated with postemergence applications of the test chemicals formulated in the same manner. Plants ranged in height from 2 to 18 cm (1- to 4-leaf stage). Treated plants and controls were maintained in a controlled growth environment for 14 to 21 days after which time all species were compared to controls and visually evaluated. Plant response ratings, summarized in Table D, are based on a scale of 0 to 100 where 0 is no effect and 100 is complete control. A dash (-) response means no test result.

In test [8] the test system is deadnettle. The experiment in a line: Test D preemergence. The class given is in vivo, Lamium amplexicaule. Conditions: scale 0 to 100.
Description: as §4, §5

Setting [9] is: Preemergence, 31 g ai/ha, scale 0 to 100.
Setting [10] is: Preemergence, 62 g ai/ha, scale 0 to 100.
Setting [11] is: Preemergence, 125 g ai/ha, scale 0 to 100.
Setting [12] is: preemergence, 8 g ai/ha, scale 0 to 100, 100 is complete control.
Where [13] appears, read: preemergence, 16 g ai/ha, scale 0 to 100, 100 is complete control.
[14] abbreviates: Preemergence, 16 g ai/ha, scale 0 to 100.

For `CCOc1cc(C(=O)NCC(F)(F)F)nn1Cc1ccnc(C(F)(F)F)c1` [Compound 104], the “Plant response rating, Lambsquarters” value in test [1] (setting [9]) amounted to 100; in test [1] (setting [10]) it was 100; in test [1] (setting [11]), 100; in test [1] (setting [12]), 35; in test [1] (setting [13]), 60. Moreover, the “Plant response rating, Pigweed, Palmer” value in test [2] (Postemergence, 31 g ai/ha) is recorded as 60; in test [2] (Postemergence, 125 g ai/ha), 70; in test [2] (Postemergence, 250 g ai/ha), 75; in test [2] (postemergence, 62 g ai/ha), 80; in test [2] (postemergence, 500 g ai/ha), 95. In addition, the “Plant response rating, Common Ragweed” value is 95 in test [3] (setting [9]); 100 in test [3] (setting [10]); 100 in test [3] (setting [11]); 0 in test [3] (setting [12]); 0 in test [3] (setting [13]). Further, the “Plant response rating, Johnsongrass” value in test [4] (16 g ai/ha) is 95; in test [4] (31 g ai/ha), 100; in test [4] (62 g ai/ha) it was 100; in test [4] (125 g ai/ha) it was 100; in test [4] (250 g ai/ha) it was 100. Besides, the “Plant response rating, Giant Foxtail” value in test [5] (setting [9]) was determined as 100; in test [5] (setting [10]) it was 100; in test [5] (setting [11]) it was 100; in test [5] (setting [12]), 25; in test [5] (setting [13]), 30. In addition, the “Plant response rating, Fall Panicum” value in test [6] (setting [9]) stood at 90; in test [6] (setting [10]) it was 100; in test [6] (setting [11]), 100; in test [6] (setting [12]), 15; in test [6] (setting [13]), 85.

Regarding `CCOc1cc(C(=O)NC(C)C)nn1Cc1ccnc(C(F)(F)F)c1` [Compound 188], the “Plant response rating, Lambsquarters” value in test [1] (setting [10]) amounted to 100; in test [1] (setting [11]), 100; in test [1] (setting [12]) it was 50. For the same molecule, the “Plant response rating, Pigweed, Palmer” value in test [2] (Postemergence, 31 g ai/ha) was found to be 50; in test [2] (Postemergence, 125 g ai/ha), 50; in test [2] (Postemergence, 250 g ai/ha), 60; in test [2] (postemergence, 62 g ai/ha), 50; in test [2] (postemergence, 500 g ai/ha), 70. Further, the “Plant response rating, Foxtail, Green” value in test [7] (62 g ai/ha), in test [7] (125 g ai/ha) and in test [7] (250 g ai/ha) was 100 in each case. Further, the “Plant response rating, Common Ragweed” value in test [3] (setting [14]) is reported as 30; in test [3] (setting [10]), 90; in test [3] (setting [11]), 90; in test [3] (setting [12]) it was 0. Besides, the “Plant response rating, Deadnettle” value in test [8] (31 g ai/ha), in test [8] (62 g ai/ha), in test [8] (125 g ai/ha) and in test [8] (250 g ai/ha) was 100 each time. Further, the figures for the “Plant response rating, Giant Foxtail” value in test [5] (setting [10]), in test [5] (setting [11]) and in test [5] (setting [12]) were 100, 100 and 5, respectively. The “Plant response rating, Fall Panicum” value in test [6] (setting [14]) came out at 100; in test [6] (setting [10]), 100; in test [6] (setting [11]), 100; in test [6] (setting [12]), 75.

For `CCOc1cc(C(=O)NC2CC2)nn1Cc1ccnc(C(F)(F)F)c1` [Compound 189], the “Plant response rating, Foxtail, Green” value in test [7] (62 g ai/ha), in test [7] (125 g ai/ha) and in test [7] (250 g ai/ha) was 100 each time. In addition, the “Plant response rating, Johnsongrass” value came to 0 in test [4] (4 g ai/ha); 0 in test [4] (8 g ai/ha); 25 in test [4] (16 g ai/ha); 100 in test [4] (31 g ai/ha); 100 in test [4] (62 g ai/ha). The “Plant response rating, Deadnettle” value in test [8] (31 g ai/ha) is on record as 90; in test [8] (62 g ai/ha) it was 100; in test [8] (125 g ai/ha), 100; in test [8] (250 g ai/ha) it was 100.
